From ChEMBL document CHEMBL1135772, “Conformationally constrained nicotines: polycyclic, bridged, and spiro-annulated analogues as novel ligands for the nicotinic acetylcholine receptor” (J Med Chem, 2002)

molecular target: Neuronal acetylcholine receptor; alpha4/beta2 (Rattus norvegicus, UniProt P09483+P12390); experiment: Displacement of [3H]cytisine from Nicotinic acetylcholine receptor alpha4-beta2 in rat forebrain
Sequence (P09483 whole entry): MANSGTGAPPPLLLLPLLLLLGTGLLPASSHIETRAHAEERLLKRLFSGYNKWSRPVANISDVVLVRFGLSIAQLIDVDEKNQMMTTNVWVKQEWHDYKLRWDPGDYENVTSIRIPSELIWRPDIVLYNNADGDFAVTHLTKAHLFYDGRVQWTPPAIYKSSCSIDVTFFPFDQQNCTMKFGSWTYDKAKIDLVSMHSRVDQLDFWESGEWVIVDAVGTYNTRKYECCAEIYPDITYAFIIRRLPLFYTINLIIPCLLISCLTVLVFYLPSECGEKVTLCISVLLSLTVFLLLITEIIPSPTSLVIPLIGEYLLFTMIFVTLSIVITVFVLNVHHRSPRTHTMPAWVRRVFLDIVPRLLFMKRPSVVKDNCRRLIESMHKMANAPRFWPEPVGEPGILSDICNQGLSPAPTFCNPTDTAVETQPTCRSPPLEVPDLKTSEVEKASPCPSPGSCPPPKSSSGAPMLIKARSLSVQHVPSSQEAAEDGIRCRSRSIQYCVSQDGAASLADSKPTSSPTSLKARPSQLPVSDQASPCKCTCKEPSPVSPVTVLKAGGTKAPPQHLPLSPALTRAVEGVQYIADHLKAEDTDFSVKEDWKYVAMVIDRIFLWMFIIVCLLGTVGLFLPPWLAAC
Sequence (P12390 whole entry): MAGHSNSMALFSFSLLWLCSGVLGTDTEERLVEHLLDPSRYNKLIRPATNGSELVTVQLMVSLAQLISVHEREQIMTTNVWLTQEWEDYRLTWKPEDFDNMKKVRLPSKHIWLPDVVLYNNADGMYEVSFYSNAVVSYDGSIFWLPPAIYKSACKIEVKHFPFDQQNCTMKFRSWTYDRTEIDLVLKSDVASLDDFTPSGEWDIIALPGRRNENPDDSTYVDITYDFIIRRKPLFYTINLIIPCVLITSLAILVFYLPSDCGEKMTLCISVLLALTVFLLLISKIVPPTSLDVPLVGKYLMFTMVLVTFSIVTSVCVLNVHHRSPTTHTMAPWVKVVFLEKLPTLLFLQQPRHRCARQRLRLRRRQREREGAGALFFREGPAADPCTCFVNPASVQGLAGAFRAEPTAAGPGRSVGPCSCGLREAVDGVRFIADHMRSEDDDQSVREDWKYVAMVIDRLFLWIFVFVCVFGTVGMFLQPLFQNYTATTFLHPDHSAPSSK

**Q.** Which Ki does the source give for `c1cc2c(cn1)C1N3CCCC1(CC3)C2` (stereo in doubt; (+)4b) here?
**A.** 318 nM

**Q.** For `c1cc2c(cn1)[C@]1(CCCN1)CC2`, which Ki is on record?
**A.** 533 nM

**Q.** With `c1cc2c(cn1)[C@@]1(CCCN1)CC2` as the molecule, how does the Ki read?
**A.** 53.1 nM

**Q.** `CN1CCC[C@]12CCc1ccncc12` was tested. Which Ki did it give?
**A.** 4.79 nM

**Q.** For `c1cc2c(cn1)C1N3CCCC1(CC3)C2` (stereo in doubt; (-)4b), which Ki is on record?
**A.** 1040 nM

**Q.** Which Ki does the source give for `c1cncc(C2C3CCN2CC3)c1` (stereo in doubt; 3 (+)) here?
**A.** 2.32 nM

**Q.** `CN1CCC[C@@]12CCc1ccncc12` was tested. Which Ki did it give?
**A.** 148 nM

**Q.** How did the Ki turn out when `c1cncc(C2C3CCN2CC3)c1` (single isomer, unassigned; (-)) was run?
**A.** 1.89 nM

**Q.** With `c1cc2c(cn1)[C@H]1N3CCC1(CC3)C2` as the molecule, how does the Ki read?
**A.** 962 nM
